Tests used:
[1] = tested on: MCF-7 breast cancer cells; assay: Cell uptake and live cell laser scanning confocal imaging; format: cell-based; conditions: for uptake and intracellular distribution (confocal images): 24 h, λex=405 nm
Protocol: Because of its low cytotoxicity and emission (FIG. 3) in the green region (548 nm) at micromolar concentrations (ΦF=0.15), water-soluble 9·4Cl was subjected to live cell imaging with MCF-7 breast cancer cells. Living cells treated with the tetracationic cyclophane at 50 and 20 μM (FIG. 7) and as low as 1 μM (FIG. 10) concentrations, were imaged by laser scanning confocal microscopy.
MCF-7 Breast cancer cells were grown in standard Dulbecco's modified eagle medium (DMEM), which was supplemented with 10% Fetal Bovine Serum (FBS) and 1% Penicillin-Streptomycin (Corning). Cells were seeded into an 8-well imaging coverglass chamber (manufacturer-CellVis) or multiwell plate using phenol red free DMEM about 24 h prior to treatment. Dye 9·4Cl was resuspended in deionized H2O before being diluted to their final concentrations in the cell culture media. Cells were treated with the dye for 24 h prior to imaging. Uptake assays were carried out at concentrations from 1-50 μM, including a vehicle control (untreated). For the cell growth assays, cells were treated with the dye for 24 h at a range of concentrations from 0.1-50 μM.
Confocal imaging was performed on a Leica SP8 laser scanning confocal microscope on a DMi8 […] stand with LAS X software in the Biological Imaging Facility (BIF) at Northwestern University. Uptake images were taken with a 63×/1.4 NA objective, scanning at a zoom of two with a pinhole of one Airy unit (AU) at 600 Hz with a galvo scanner and line averaging of two. Images were 92.35×92.35 μm (1024×1024) with 10 slices in the z direction with a step size of 0.3 μm (total stack volume 3.0 μm). A single excitation wavelength (405 nm) was used at a power of approximately 14 μW. For the emission collection, a Leica spectral Hybrid (HyD) detector set to collect a wavelength range of 500-650 nm (with a gain of 24%) was used. A transmitted light image was also collected simultaneously using the timeline photomultiplier (TL-PMT). Images were processed with FIJI/ImageJ (NIH) and settings were kept consistent throughout the series of images. Images presented are maximum intensity projections.

[2] = Absolute fluorescence quantum yield (integrating sphere); format: physicochemical; conditions: in H2O
Protocol: (§1) Fluorescent dyes were dissolved in the appropriate solvents to afford 1 mM solutions prior to spectroscopic analysis. A portion of 30 μL of a 1 mM solution was diluted by adding a selected solvent to a sample with a total volume of 3000 μL, affording a 1×10^−5 M solution. UV/Vis Absorption spectra were recorded in glass cuvettes on a UV-3600 Shimadzu spectrophotometer. Steady-state emission spectra were acquired in quartz cuvettes with optical path-lengths of 10 mm containing the solution being analyzed using a HORIBA Fluoromax4 spectrofluorometer, which was equipped with an integrating sphere for determining the absolute photoluminescence quantum yield.
Steady-state and time-resolved emission spectra for dyes 1-6, 7·2PF6 and 9·4PF6 were acquired using a HORIBA Fluorolog-3 spectrofluorometer, equipped with a time-correlated single photon counting (TCSPC) module (diode laser excitation at λ=375 nm) and an integrating sphere, which was used for absolute photo-luminescence quantum yield determinations. Picosecond time-resolved fluorescence measurements were recorded using a commercial direct-diode-pumped 100 kHz amplifier (Spirit 1040-HE, Spectra-Physics), producing a fundamental beam of 1040 nm (350 fs, 12 W) which was used to pump a non-collinear optical parametric amplifier (Spirit-NOPA, SpectraPhysics) capable of delivering tunable, high-repetition-rate pulses with pulse widths as short as sub-20 fs. Dyes 1-6, 7·2PF6 and 9·4PF6 were excited with 350 nm, 2 nJ laser pulses. Fluorescence was detected using a Hamamatsu C4780 Streakscope as previously described in the literature. Samples were prepared in 2-mm quartz cuvettes. All data were acquired in the single-photon-counting mode using the Hamamatsu HPD-TA software. The temporal resolution was approximately 2% of the sweep window. Single wavelength kinetic analysis was performed using a nonlinear least-squares fit to a sum of exponentials convoluted with an instrument response function. Visible and near-infrared femtosecond and nanosecond transient absorption (fsTA and nsTA, respectively) spectroscopies were performed following descriptions already recorded in the literature. The 330 nm, ˜100 fs pump pulses were generated at 1 μJ per pulse using a commercial collinear optical parametric amplifier (TOPAS-Prime, Light-Conversion, Ltd.); 414-nm pump pulses were obtained by second-harmonic generation of the 828 nm fundamental. The pump polarization was randomized using a commercial depolarizer (DPU-25-A, Thorlabs, Inc.) to eliminate any orientational dynamics resulting from the experiment. Spectra were collected on commercial spectrometers (customized Ultrafast Systems Helios and EOS spectrometers, for fsTA and nsTA, respectively) for each time window. All samples were stirred to avoid localized heating or degradation effects. The optical density was maintained at 0.6 for all samples.
Steady-state and time-resolved emission spectra for dyes 7·2PF6 and 9·4PF6 were acquired using a HORIBA Fluorolog-3 spectrofluorometer, equipped with a time-correlated single photon counting (TCSPC) module (diode laser excitation at =375 nm) and an integrating sphere, which was used for absolute photo-luminescence quantum yield determinations. Picosecond time-resolved fluorescence measurements were recorded using a commercial direct-diode-pumped 100 kHz amplifier (Spirit 1040-HE, Spectra-Physics), producing a fundamental beam of 1040 nm (350 fs, 12 W) which was used to pump a non-collinear optical parametric amplifier (Spirit-NOPA, SpectraPhysics) capable of delivering tunable, high-repetition-rate pulses with pulse widths as short as sub-20 fs. The samples 7·2PF6 and 9·4PF6 were excited with […], 2 nJ laser pulses. Fluorescence was detected using a Hamamatsu C4780 Streakscope as previously described in the literature.^71 Samples were prepared in 2-mm quartz cuvettes. All data were acquired in the single-photon-counting mode using the Hamamatsu HPD-TA software. […]

[3] = Steady-state UV/Vis absorption and fluorescence emission spectra; format: physicochemical; conditions: micromolar concentrations
Protocol: Fluorescent dyes 1-6, 7·2PF6, 8·2PF6, 9·4PF6 and 9·4Cl were dissolved in THF (1-5), MeCN (6, 7·2PF6, 8·2PF6 and 9.4PF6) and H2O (9.4Cl), respectively, to afford 10 μM solutions prior to spectroscopic analysis. For comparison, their normalized (i) UV/Vis absorption (FIG. 2) and (ii) the fluorescence emission (FIG. 3) spectra of quadrupolar dyes are overlayed, displaying a large range of S1 absorbance and emission maxima, which rely highly on their quadrupolarity that is correlated to the electron-deficiency of the ARs.
as §1

SMILES: COc1cc2c(OC)cc1-c1cc[n+](cc1)Cc1ccc(cc1)C[n+]1ccc(cc1)-c1cc(OC)c(cc1OC)-c1cc[n+](cc1)Cc1ccc(cc1)C[n+]1ccc-2cc1 [9·4Cl]
- uptake and intracellular distribution (confocal images) ([1]; 50 μM and 10 μM, emission 500-650 nm): taken up by living cells and concentrated in intracellular compartments
- uptake and intracellular distribution (confocal images) ([1]; MCF-7, 1 μM, emission 500-650 nm): taken up by living cells and concentrated in intracellular compartments
- fluorescence in cells ([1]; MCF-7, 405 nm laser excitation, emission 500-650 nm): fluoresces brightly in cells
- cell uptake ([1]; MCF-7 cells, 1-50 μM): readily taken up by cells
- cell uptake at low treatment concentrations ([1]; as low as 1 μM): readily taken up by cells
- Quantum Yield (ΦF) [2]: 0.15
- emission in the green region [3]: 548 nm

From patent US20250085201A1, “SUBSTITUTED QUADRUPOLAR FLUORESCENT DYES FOR LIVE CELL IMAGING” (Northwestern University, priority 2023, published 2025)
